Article PMC12707362, “Targeting Aurora Kinases as Essential Cell‐Cycle Regulators to Deliver Multi‐Stage Antimalarials Against Plasmodium Falciparum” (Angewandte Chemie (International Ed. in English), 2025)
Like-named read-outs stand apart in the source and are kept apart here.

Tests used:
recombinant PfArk1 = recombinant PfArk1 (Plasmodium falciparum, UniProt C6KSQ1); test: KinaseSeeker three-hybrid split-luciferase competitive binding assay, PfArk1
Procedure: Supplementary Figure S3: (A) Single-point activity profile of selected inhibitors at 1 µM against recombinant PfArk-1 and PfArk-3 proteins, utilising a three-hybrid split-luciferase competitive binding assay (KinaseSeeker™).

[1] = system: PfNF54 male gamete formation (exflagellation); test: P. falciparum Dual Gamete Formation Assay (PfDGFA), male; format: cell-based; conditions: Plasmodium falciparum
Procedure: (§1) The Pf DGFA^[8] was performed by incubating PfNF54 gametocytes with test molecules in 384-well plates for 48 h. Gametogenesis was triggered with the addition of xanthurenic acid and a decrease in temperature. Male and female gametes were identified through fluorescent microscopy and quantified from recorded data using a custom imaging algorithm and then compared to negative (DMSO) and positive (1 µM cabamiquine) controls. Percentage inhibition was calculated, and dose-response curves were constructed in GraphPad Prism v10.5 to calculate IC50 values.

PfNF54 female gametes = test: P. falciparum Dual Gamete Formation Assay (PfDGFA), female; format: cell-based, Plasmodium falciparum
Procedure: as §1

[2] = Human liver microsome clearance; format: in vitro ADME; conditions: human liver microsomes; for microsomal CLint: read-out: HL microsome CLint; for half-life: read-out: HL microsome t1/2
Source text: In vitro ADME analysis for logD, kinetic solubility (PBS, pH 7.4), human liver microsome clearance and t1/2, rat hepatocyte clearance and t1/2, and protein binding in Albumax media (simulating the malaria parasite culture media) was all performed as per standard assays by TCG LifeSciences.

[3] = system: multidrug-resistant PfDd2 ABS parasites; test: SYBR Green I proliferation assay, PfDd2 asexual blood stages; format: cell-based; conditions: Plasmodium falciparum, DD2, read-out: Pf Dd2 ABS IC50
Procedure: (§2) (B) Antiplasmodial activity of nine anticancer aurora kinase inhibitors (selected based on their PfNF54 ABS activity) against P. falciparum multidrug-resistant ABS parasites (PfDd2 and PfK1). (C) Kinobead competitive inhibition data.
P. falciparum drug sensitive NF54 (PfNF54) and drug-resistant Dd2 (PfDd2, chloroquine, pyrimethamine and mefloquine resistant) strains were cultured in vitro in human O^+/A^+ erythrocytes (5% hematocrit) in complete medium at 2–5% parasitemia, 37 °C, shaking at 60 rpm under hypoxic conditions (90% N2, 5% O2 and 5% CO2). Immature and mature gametocytes were produced from P. falciparum 3D7elo1-pfs16-CBG99 (kind gift from Pietro Alano, ISS, Italy) ^[1] as described^[2,3] by simultaneously applying nutrient starvation and decreasing hematocrit to induce >97% ring-stage ABS parasites (0.5% parasitemia, 6% hematocrit). Gametocytogenesis was followed with daily media changes (including glucose) and ABS parasites removed with 50 mM N-acetylglucosamine (day 1–4 for stage II/III; days 3–7 for stage IV/V).
(§3) All inhibitors were dissolved in dimethyl sulfoxide (DMSO). Antiplasmodium activity of selected anti-cancer inhibitors was determined on P. falciparum NF54 and Dd2 strains, measuring SYBR Green I fluorescence (485 nm excitation, 538 nm emission) as an indicator of proliferation^[4]. Ring-stage ABS parasites (1% parasitemia, 1% hematocrit) were treated with compounds for 96 h at 37 °C with chloroquine disulphate (0.5 μM) as positive drug control. The activity of the inhibitors was tested against immature (>95% stage II/III) and late-stage (>90% stage IV/V) gametocytes using a luciferase reporter assay on 3D7elo1-pfs16-CBG99 ^[1]. […] Luciferase activity was determined using a non-lysing D-luciferin substrate (1 mM in 0.1 M citrate buffer, pH 5.5, 100 μL) and bioluminescence was detected with a GloMax® - Multi Detection System with Instinct® software.

[4] = system: multidrug-resistant PfK1 ABS parasites; test: SYBR Green I proliferation assay, PfK1 asexual blood stages; format: cell-based; conditions: Plasmodium falciparum
Procedure: as §2, §3

[5] = system: asexual intra-erythrocytic parasites; test: Fixed-ratio isobologram analysis; conditions: additivity/indifference 0.8–1.4, antagonism >1.4
Procedure: Isobolograms were generated by plotting paired FIC values linearly, utilizing the average of three biological replicates, each performed in technical duplicates. The paired FIC values for each drug combination were analyzed, and the mean FIC values (ΣFIC) were calculated to delineate synergism (<0.8), additivity/indifference (0.8–1.4), or antagonism (>1.4).

[6] = system: P. falciparum drug-sensitive NF54 (PfNF54) asexual intra-erythrocytic parasites; test: SYBR Green I proliferation assay, PfNF54 asexual blood stages; format: cell-based, Plasmodium falciparum
Source text: Figure 1 Activity profile of Aur class anticancer inhibitors across the life cycle of Plasmodium falciparum parasites. a) Activity (IC50) of inhibitors (grouped based on specificity against human Aur) against P.falciparum drug‐sensitive (PfNF54) asexual intra‐erythrocytic parasites as measured with SYBR Green I fluorescence as an indicator of viability and proliferation. […] ABS, asexual blood stages of the parasite; HsAur, human Aur.
P. falciparum drug sensitive NF54 (PfNF54) and drug-resistant Dd2 (PfDd2, chloroquine, pyrimethamine and mefloquine resistant) strains were cultured in vitro in human O^+/A^+ erythrocytes (5% hematocrit) in complete medium at 2–5% parasitemia, 37 °C, shaking at 60 rpm under hypoxic conditions (90% N2, 5% O2 and 5% CO2). […] Gametocytogenesis was followed with daily media changes (including glucose) and ABS parasites removed with 50 mM N-acetylglucosamine (day 1–4 for stage II/III; days 3–7 for stage IV/V).
All inhibitors were dissolved in dimethyl sulfoxide (DMSO). […] Ring-stage ABS parasites (1% parasitemia, 1% hematocrit) were treated with compounds for 96 h at 37 °C with chloroquine disulphate (0.5 μM) as positive drug control. […] Luciferase activity was determined using a non-lysing D-luciferin substrate (1 mM in 0.1 M citrate buffer, pH 5.5, 100 μL) and bioluminescence was detected with a GloMax® - Multi Detection System with Instinct® software.

[7] = system: synthetic β-hematin (βH) formation; test: NP-40 mediated cell-free β-hematin inhibition assay; format: biochemical; conditions: cell-free NP-40, pH 4.8, 5 h
Procedure: The β-hematin inhibition assay, as described in^[30,31] was used to test the inhibitors for their ability to inhibit β-hematin formation. The test samples were prepared as 20 mM or 10 mM stock solutions in dimethyl sulfoxide (DMSO). Serial dilutions of each inhibitor (100 μL) were performed from column 12 to column 2 of a 96-well plate in triplicate, with column 1 serving as a negative control (0 μM test inhibitor). The samples were tested at a starting in-well concentration of 1000 μM (20 mM stock) or 500 μM (10 mM stock). An “NP-40 substitute” detergent was added (305.5 μM) to each well to mimic the lipophilic environment in which hemozoin formation occurs within the parasite’s digestive vacuole, in helping to mediate the formation of β-hematin. A 25 mM hematin stock was prepared by sonicating heme in DMSO and then suspending 178.8 μL of this in 1 M acetate buffer (20 mL, pH 4.8). Then, 100 μL of the hematin suspension was added to each well to a final well volume of 200 μL. The plate was then incubated for 5 hours at 37 °C. After incubation, 32 μL and 60 μL of 50% pyridine solution and acetone were added, respectively. The pyridine-ferrochrome method by^[31] was used for UV-vis analysis, with the heme-pyridine complex absorbance measured at 405 nm. Data were analysed using Microsoft Excel and GraphPad Prism v10.5 software.

[8] = 48 h, read-out: Pf DGFA IC50 Male
[9] = read-out: IC50 male gamete exflagellation
[10] = multidrug-resistant K1, read-out: Pf K1 ABS IC50
[11] = Plasmodium falciparum, 48 h, read-out: Pf DGFA IC50 Female
[12] = Plasmodium falciparum, NF54, 96 h, ring-stage ABS, 96 h, SYBR Green I, read-out: Pf NF54 ABS IC50
[13] = Plasmodium falciparum, NF54, bounds stated in text, read-out: Pf NF54 ABS IC50
[14] = ring-stage ABS, 96 h, SYBR Green I, read-out: Pf NF54 ABS IC50
[15] = Plasmodium falciparum, NF54, 96 h, read-out: Pf NF54 ABS IC50
[16] = Plasmodium falciparum, NF54, read-out: Pf NF54 ABS IC50

Chain of recombinant PfArk1 (C6KSQ1 entry or part of it): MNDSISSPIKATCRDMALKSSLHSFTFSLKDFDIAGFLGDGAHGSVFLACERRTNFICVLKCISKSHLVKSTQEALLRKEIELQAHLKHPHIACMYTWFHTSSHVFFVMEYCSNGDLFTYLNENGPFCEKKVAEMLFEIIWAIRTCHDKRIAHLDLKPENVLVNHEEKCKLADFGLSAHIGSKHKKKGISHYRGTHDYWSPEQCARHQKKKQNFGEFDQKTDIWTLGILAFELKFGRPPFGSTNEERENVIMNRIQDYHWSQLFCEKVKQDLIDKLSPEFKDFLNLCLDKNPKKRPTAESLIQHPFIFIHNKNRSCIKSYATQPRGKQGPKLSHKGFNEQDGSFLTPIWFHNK

SMILES | inhibition of PfArk1 (recombinant PfArk1; single point 1 µM) [%] | IC50 [1, 8] [µM] | IC50 [1, 9] [µM] | IC50 (PfNF54 female gametes; Plasmodium falciparum, 48 h; read-out: Pf DGFA IC50 Female) [µM] | microsomal CLint [2] [µL/min/mg] | half-life [2] [h] | IC50 [3] [µM] | IC50 [4, 10] [µM] | ΣFIC50 in combination with CQ [5] | IC50 (PfNF54 female gametes; [11]) [µM] | IC50 [6, 12] [µM] | IC50 [6, 13] [µM] | IC50 [6, 14] [µM] | IC50 [7] [µM] | IC50 (recombinant PfArk1) [µM] | ΣFIC50 in combination with ML10 [5] | IC50 (PfNF54 female gametes; 48 h; read-out: Pf DGFA IC50 Female) [µM] | IC50 [6, 15] [µM] | IC50 [6, 16] [µM] | IC50 ([4]; K1, read-out: Pf K1 ABS IC50) [µM]
O=C(Nc1c[nH]nc1-c1nc2ccc(CN3CCOCC3)cc2[nH]1)NC1CC1 [AT83, AT9283] | 30 | 0.8 | 0.786 ± 0.016 | > 10 | 3.5 | 6.58 | 0.105 | 0.102 | – | – | – | – | – | – | – | – | – | – | – | –
COc1cc2c(Nc3ccc(NC(=O)c4ccccc4)cc3)ncnc2cc1OCCCN1CCOCC1 [ZM-39, ZM-447439] | – | > 10 | – | – | – | – | 0.374 | 0.277 | 1.4 | > 10 | < 0.25 | < 1 | 0.235 | < 20 | – | – | – | – | – | –
O=C(Nc1cccc(Nc2nccc(Nc3cccc(C(F)(F)F)c3)n2)c1)C1CC1 [Aki III, Aurora kinase inhibitor III] | – | – | – | – | – | – | 1.6 | 1.38 | – | – | 0.819 | < 1 | – | < 20 | – | – | – | – | – | –
COc1cc(N2CCC(N3CCN(C)CC3)CC2)ccc1Nc1ncc(Cl)c(Nc2ccccc2S(=O)(=O)C(C)C)n1 [TAE684, NVP-TAE684] | – | 0.12 | 0.116 ± 0.017 | – | 25.4 | 0.917 | 0.227 | – | 1.3 | 2.3 ± 0.05 | 0.28 ± 0.013 | – | 0.279 | 41.4 ± 2.3 | 0.146 ± 0.02 | 1.3 | 2.26 | – | – | –
CCN(CCO)CCCOc1ccc2c(Nc3cc(CC(=O)Nc4cccc(F)c4)n[nH]3)ncnc2c1 [AZD-1152, AZD-1152-HQPA] | – | – | – | – | – | – | 0.49 | 0.341 | – | – | – | – | – | < 20 | – | – | – | 0.753 | < 1 | –
CCN1CCN(C(=O)Cc2ccc(Nc3ncc(F)c(Nc4ccc(C(=O)Nc5ccccc5Cl)cc4)n3)cc2)CC1 [AAi I, Aurora A Inhibitor I] | – | – | – | – | – | – | 0.903 | – | – | – | – | – | – | < 20 | – | – | – | 0.475 ± 0.0901 | < 1 | 0.342
